Data: the NIST ThermoML archive (doi:10.1016/j.jct.2015.05.002)

Test: mn = molality of the nth substance listed, in mol/kg
Details: 101.3 kPa, Liquid; for speed of sound: Frequency=3 MHz, Sing-around technique in a fixed-path interferometer; for mass density: Vibrating tube method

O=C[O-].[NH3+]CCCO [3-hydroxypropylammonium formate] + O
Details | mass density, m1 = 0.1 [kg/m3] | mass density, m1 = 0.21 [kg/m3] | mass density, m1 = 0.3 [kg/m3] | mass density, m1 = 0.42 [kg/m3] | speed of sound, m1 = 0.1 [m/s] | speed of sound, m1 = 0.21 [m/s] | speed of sound, m1 = 0.3 [m/s] | speed of sound, m1 = 0.42 [m/s]
293.15 K | 999.816 | 1001.61 | 1003.08 | 1005.09 | 1489.6 | 1496.4 | 1502.6 | 1510.7
298.15 K | – | 1000.35 | – | 1003.64 | – | 1508.3 | – | 1520
303.15 K | – | 998.914 | – | 1002.15 | – | 1519.6 | – | 1530.5
308.15 K | – | 997.259 | – | 1000.45 | – | 1529.4 | – | 1540.3
313.15 K | – | 995.402 | – | 998.562 | – | 1538 | – | 1547.9
318.15 K | – | 993.291 | – | 996.504 | – | 1545 | – | 1554.3
